Measured values: patent publication US12534742B2, “Compound for regulating gene editing efficiency and application thereof” (Shanghai Institute of Organic Chemistry, Chinese Academy of …, priority 2018, dated 2026)
Several values for one entry are separate records, joined by “and”; a condition that tells them apart may be missing. Identical values can stand only once.

What was measured:
[1] = biological target: T1, SpyCas9 (Streptococcus pyogenes serotype M1, UniProt Q99ZW2); assay: Inhibition of plasmid-expressed SpyCas9 editing of endogenous genes in HEK293 cells, T7E1 test; assay type: cell-based; conditions: 10 μM compound
T1 construct: expressed in transfected cells; host or cells: HEK293
T1 sequence (Q99ZW2 whole entry): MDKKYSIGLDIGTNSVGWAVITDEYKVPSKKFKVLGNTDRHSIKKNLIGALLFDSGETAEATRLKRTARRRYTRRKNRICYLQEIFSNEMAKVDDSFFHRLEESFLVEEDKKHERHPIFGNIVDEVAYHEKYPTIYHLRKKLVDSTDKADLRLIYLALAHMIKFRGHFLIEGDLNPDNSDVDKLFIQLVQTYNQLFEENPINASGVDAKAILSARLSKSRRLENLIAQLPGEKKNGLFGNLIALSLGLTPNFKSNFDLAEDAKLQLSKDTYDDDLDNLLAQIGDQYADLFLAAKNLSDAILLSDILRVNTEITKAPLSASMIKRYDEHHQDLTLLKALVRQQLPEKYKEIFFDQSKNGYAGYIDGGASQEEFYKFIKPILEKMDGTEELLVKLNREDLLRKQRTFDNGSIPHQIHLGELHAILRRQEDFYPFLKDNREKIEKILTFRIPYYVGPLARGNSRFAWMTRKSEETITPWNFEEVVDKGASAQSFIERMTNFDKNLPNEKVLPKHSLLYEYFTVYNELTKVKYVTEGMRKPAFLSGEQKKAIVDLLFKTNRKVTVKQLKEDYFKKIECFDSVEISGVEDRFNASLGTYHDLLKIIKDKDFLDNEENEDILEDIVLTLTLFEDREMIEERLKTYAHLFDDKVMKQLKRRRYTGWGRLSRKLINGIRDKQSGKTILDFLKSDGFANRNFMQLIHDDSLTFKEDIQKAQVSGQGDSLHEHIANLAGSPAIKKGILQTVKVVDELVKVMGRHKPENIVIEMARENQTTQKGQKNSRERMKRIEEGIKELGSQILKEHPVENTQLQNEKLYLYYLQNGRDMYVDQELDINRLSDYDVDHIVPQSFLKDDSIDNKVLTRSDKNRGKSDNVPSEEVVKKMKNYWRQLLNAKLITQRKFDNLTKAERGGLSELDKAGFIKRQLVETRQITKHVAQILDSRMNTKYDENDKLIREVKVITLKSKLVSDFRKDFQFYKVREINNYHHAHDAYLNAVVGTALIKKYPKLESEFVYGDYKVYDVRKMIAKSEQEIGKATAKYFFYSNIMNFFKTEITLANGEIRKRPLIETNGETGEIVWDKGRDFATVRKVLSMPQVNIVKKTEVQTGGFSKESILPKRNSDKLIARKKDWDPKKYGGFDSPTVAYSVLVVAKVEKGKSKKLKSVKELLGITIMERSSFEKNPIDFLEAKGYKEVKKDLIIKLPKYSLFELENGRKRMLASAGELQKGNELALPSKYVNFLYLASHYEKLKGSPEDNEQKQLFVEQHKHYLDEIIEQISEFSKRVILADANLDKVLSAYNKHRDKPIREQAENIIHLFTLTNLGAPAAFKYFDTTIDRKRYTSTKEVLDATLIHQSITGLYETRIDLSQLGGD
Method: (§1) HEK293 cells (10^5 cells/well) were seeded on a 24-well plate. 24 hours after inoculation, cells were transfected with 200 ng AAVS1-AS2 and 200 ng pST-Cas9 plasmid or 200 ng EMX1 and 200 ng pST-Cas9 plasmid in Opti-MEM medium. 6 hours after transfection, DMEM supplemented with 10% FBS and 10 μM drug (Compound 49) was used to replace Opti-MEM. The positive control for Cas9 activity was 200 ng AAVS1-AS2 and 200 ng pST-Cas9 plasmid or 200 ng EMX1 and 200 ng pST-Cas9 plasmid without drug. After the gene editing was completed, the cell genomic DNA was extracted, and the gene editing efficiency was tested by the T7E1 method (see Guschin, D. Y. et al. Methods Mol. Biol. 649, 247-256 (2010))).
The method of this example was the same as in Example 2.

[2] = biological target: T2, Staphylococcus aureus Cas9 (SaCas9) (Staphylococcus aureus, UniProt J7RUA5); assay: Inhibition of plasmid-expressed SaCas9 gene editing in cell culture, T7E1 test; assay type: cell-based; conditions: plasmid containing SaCas9; group without drug 14%
T2 construct: expressed in transfected cells; host or cells: HEK293 (method similar to 2.1)
T2 sequence (J7RUA5 whole entry): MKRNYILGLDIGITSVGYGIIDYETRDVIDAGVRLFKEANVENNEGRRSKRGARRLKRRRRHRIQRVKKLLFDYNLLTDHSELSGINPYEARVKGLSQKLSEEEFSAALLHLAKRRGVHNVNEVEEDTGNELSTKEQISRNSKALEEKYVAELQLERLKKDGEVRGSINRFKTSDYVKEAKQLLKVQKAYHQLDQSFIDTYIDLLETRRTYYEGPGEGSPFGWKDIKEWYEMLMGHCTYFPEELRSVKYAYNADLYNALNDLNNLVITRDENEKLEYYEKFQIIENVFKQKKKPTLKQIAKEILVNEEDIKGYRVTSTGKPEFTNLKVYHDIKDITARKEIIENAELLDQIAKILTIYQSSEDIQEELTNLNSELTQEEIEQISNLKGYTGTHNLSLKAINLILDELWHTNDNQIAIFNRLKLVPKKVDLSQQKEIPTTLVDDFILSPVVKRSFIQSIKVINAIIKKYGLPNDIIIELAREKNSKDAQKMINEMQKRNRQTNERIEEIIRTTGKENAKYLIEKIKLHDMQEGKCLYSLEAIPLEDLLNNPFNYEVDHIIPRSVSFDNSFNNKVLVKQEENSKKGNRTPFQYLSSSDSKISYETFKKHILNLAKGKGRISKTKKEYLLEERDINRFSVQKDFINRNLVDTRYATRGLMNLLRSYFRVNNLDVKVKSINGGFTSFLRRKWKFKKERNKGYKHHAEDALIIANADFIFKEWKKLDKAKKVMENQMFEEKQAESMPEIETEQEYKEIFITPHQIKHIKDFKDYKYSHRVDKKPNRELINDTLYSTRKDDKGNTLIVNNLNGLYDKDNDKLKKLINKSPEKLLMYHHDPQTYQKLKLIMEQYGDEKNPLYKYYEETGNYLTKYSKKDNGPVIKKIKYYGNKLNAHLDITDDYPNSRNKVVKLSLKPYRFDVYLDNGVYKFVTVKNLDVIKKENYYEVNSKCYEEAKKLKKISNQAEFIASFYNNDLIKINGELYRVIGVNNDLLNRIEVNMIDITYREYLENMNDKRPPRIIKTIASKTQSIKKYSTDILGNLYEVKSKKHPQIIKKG
Method: as §1
The method of this example was similar to 2.1, except that pST-Cas9 was replaced with a plasmid containing SaCas9. The detection method was the same as in Example 2.

[3] = tested on: base editing system; assay: Regulation of base editing in HEK293T cells, deep sequencing; assay type: cell-based
[4] = biological target: T1, SpyCas9; assay: Specificity of SpyCas9-based gene editing (targeted/off-target editing), T7E1 test; assay type: cell-based; conditions: HEK293 cells
Method: as §1
SpyCas9 was lipid transfected into HEK293 cells or nuclear transfected into K562 cells to determine the effect of compound 49 on the specificity of SpyCas9 in multiple cell lines on different genes. The inhibitor was added to the culture 6 hours after transfection. The detection method is the same as in Example 2.

[5] = biological target: CRISPR/Cas9 from Streptococcus pyogenes (SpyCas9) (Streptococcus pyogenes serotype M1, UniProt Q99ZW2); assay: cell-based;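 also: Cell-based reporter with a SpyCas9 target site placed in EGFP, where NHEJ repair of the cut restores the reading frame, read-out is the share of EGFP-positive cells, lowered by inhibitors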
Chain of CRISPR/Cas9 from Streptococcus pyogenes (SpyCas9) (Q99ZW2 whole entry): as the sequence (Q99ZW2 whole entry) above
Source text: The CRISPR/Cas9 recognition site was inserted into the EGFP coding sequence so that the downstream sequence of the CRISPR/Cas9 recognition site was inside the box. The EGFP sequence was cleaved by Cas9 to produce double-strand breaks (DSBs), which would repair one of the two DNA repair mechanisms in the cell: non-homologous end joining (NHEJ) or homologous directed repair (HDR). The insertion or deletion introduced by NHEJ would restore the open reading frame of EGFP, thus activating EGFP fluorescence (FIG. 1).

[6] = humans; cited from earlier work
[7] = HEK293 cells transfected with AAVS1-AS2 and pST-Cas9 plasmids, no-drug group 22.4% and 35.1%
[8] = HEK293 cells transfected with EMX1 and pST-Cas9 plasmids, no-drug group 26.5% and 27.9%

SMILES | IC50 [5] | further results
O=C(/C=C\n1cnc(-c2cc(C(F)(F)F)cc(C(F)(F)F)c2)n1)NNc1cnccn1 [Compound 49] | < 1 µM | gene modification rate [1, 7]: < 1%; gene modification rate [1, 8]: 5.6% and 3.8%; gene modification rate [2]: < 0.5%; decrease rate of C→T conversion frequency ([3]; sg47, C on 5th site, 500 nM compound): 50%; C→T conversion frequency ([3]; sg47, C on 5th site, 500 nM compound, 18% without compound): 9%; indel frequency ([3]; sg48, 500 nM compound): reduced overall; C→T conversion inhibition efficiency ([3]; sgMSSK1-5, C on 5th site in the window, 500 nM compound): 30%; C→T conversion inhibition efficiency ([3]; sgMSSK1-5, C on 11th site out-of-window, 500 nM compound): 50%; ratio of the number of scheduled gene editing at specific sites to the number of scheduled gene editing at non-specific sites ([4]; after compound added, 2.4 when no compound was added): 7; raise of the specific/non-specific site editing ratio ([4]; with compound versus no compound): 2.9 fold; safety in clinical testing [6]: safe for humans
O=C(/C=C/c1ccccc1)Nc1c(F)cccc1F [Compound 859] | > 100 µM | 
COc1ccc(C(=O)/C=C/c2ccccc2)cc1 [Compound 102] | 10 to 100 µM | 
CCN1C(=O)C=CC1=O [Compound 838] | > 100 µM | 
O=C(/C=C/c1ccc(O)cc1)c1ccc(O)cc1O [Compound 813] | > 100 µM | 
O=C(O)/C=C/c1ccc(O)cc1 [Compound 802] | > 100 µM | 
O=c1c(O)c(-c2ccc(O)c(O)c2)oc2cc(O)cc(O)c12 [Compound 850] | > 100 µM | 
O=C(/C=C\n1cnc(-c2cc(C(F)(F)F)cc(C(F)(F)F)c2)n1)NNc1ccccn1 [Compound 901] | 1 to 10 µM | 
O=S(F)(=Nc1ccc(Br)cc1)Oc1ccc(Br)cc1 (stereo not shown) [Compound 881] | > 100 µM | 
O=C(/C=C\n1cnc(-c2cc(C(F)(F)F)cc(C(F)(F)F)c2)n1)N1CC(F)(F)C1 [Compound 903] | 1 to 10 µM | 
CN(C)C/C=C/C(=O)O [Compound 876] | > 100 µM | 
CC(=O)/C=C/c1ccccc1 [Compound 890] | > 100 µM | 
O=C1CC(c2cccc(O)c2)Oc2ccccc21 (stereo not shown) [Compound 817] | > 100 µM | 
O=C(/C=C/c1ccccc1)N1CCCCC1 [Compound 840] | > 100 µM | 
C=CS(=O)(=O)c1ccccc1 [Compound 32] | 10 to 100 µM | 
CCN(CC)S(=O)(=O)/C=C/c1ccccc1 [Compound 868] | > 100 µM | 
O=Cc1cc2c(cc1C#Cc1ccccc1)OCO2 [Compound 898] | > 100 µM | 
C=CC(=O)OC [Compound 828] | > 100 µM | 
O=C(/C=C/c1cc(F)c(F)c(F)c1)c1ccccc1 [Compound 110] | 10 to 100 µM | 
C=CC(=O)N(C)C [Compound 829] | > 100 µM | 
CC1=CC(=O)c2c(O)cccc2C1=O [Compound 48] | 1 to 10 µM | gene modification rate [1, 7]: 0%; gene modification rate [1, 8]: 0%
CN(C)C(=O)/C=C/c1ccccc1 [Compound 843] | > 100 µM | 
COC(=O)/C=C/C(=O)OC [Compound 826] | > 100 µM | 
COc1ccc(/C=C/C(=O)c2ccccc2)cc1 [Compound 111] | 10 to 100 µM | 

SMILES | IC50 [5] | further results
O=S(=O)(/C=C/c1ccccc1)Oc1cccc(F)c1 [Compound 879] | > 100 µM | 
COc1cc(/C=C/C(=O)O)ccc1O [Compound 803] | > 100 µM | 
O=S(=O)(/C=C/c1ccccc1)c1ccc(Cl)cc1 [Compound 893] | > 100 µM | 
COc1cc(/C=C/c2ccc(O)cc2)cc(OC)c1 [Compound 811] | > 100 µM | 
O=S(F)(=Nc1ccc(Br)cc1)N1CCC(Cc2ccccc2)CC1 (stereo not shown) [Compound 882] | > 100 µM | 
CCOCCNS(=O)(=O)/C=C/c1ccccc1 [Compound 867] | > 100 µM | 
COc1ccc(CNC(=O)/C=C/c2ccccc2)cc1 [Compound 846] | > 100 µM | 
O=C(/C=C/c1ccccc1)N1CCOCC1 [Compound 841] | > 100 µM | 
CNC(=O)c1ccccc1Sc1ccc2c(/C=C/c3ccccn3)n[nH]c2c1 [Compound 834] | > 100 µM | 
O=c1c(O)c(-c2ccc(O)cc2)oc2ccccc12 [Compound 815] | > 100 µM | 
COc1cc(-c2ncn(/C=C\C(=O)OC(C)C)n2)cc(C(F)(F)F)c1 [Compound 902] | 1 to 10 µM | 
CC(C)(C)OC(=O)N1CCN(C(=O)/C=C/c2ccccc2)CC1 [Compound 844] | > 100 µM | 
N#C/C(=C1/SC[C@@H](c2ccc(Cl)cc2Cl)S1)n1ccnc1 [Compound 835] | > 100 µM | 
COc1cc(/C=C/C(=O)N2CCC=CC2=O)cc(OC)c1OC [Compound 905, Piperlongumine] | 1 to 10 µM | 
C=C(C)C(N)=O [Compound 825] | > 100 µM | 
CN(C)C/C=C/C(=O)Nc1cc2c(Nc3ccc(F)c(Cl)c3)ncnc2cc1O[C@@H]1CCOC1 [Compound 833] | > 100 µM | 
CS(=O)(=O)/C=C/c1ccccc1 [Compound 847] | > 100 µM | 
CC(C)N(C(C)C)S(=O)(=O)/C=C/c1ccccc1 [Compound 871] | > 100 µM | 
CCOCCNC(=O)/C=C/c1ccccc1 [Compound 853] | > 100 µM | 
O=C1C=CCCC1 [Compound 885] | > 100 µM | 
O=S(=O)(/C=C/c1ccccc1)Oc1ccc(I)cc1 [Compound 877] | > 100 µM | 
NC(=O)/C(=C/n1cnc(-c2cc(C(F)(F)F)cc(C(F)(F)F)c2)n1)c1cncnc1 [Compound 904] | 1 to 10 µM | 
O=C(/C=C/c1ccccc1)c1ccc(Br)cc1 [Compound 900] | > 100 µM | 
O=C1C=CCC1 [Compound 888] | > 100 µM | 
